This note sets out measurements from ChEMBL document CHEMBL3886997, “Biaryl- or heterocyclic biaryl-substituted cyclohexene derivative compounds as CETP inhibitors” (2016).

The target in the test is T1, Cholesteryl ester transfer protein (Homo sapiens, UniProt P11597).
T1 sequence (P11597 whole entry): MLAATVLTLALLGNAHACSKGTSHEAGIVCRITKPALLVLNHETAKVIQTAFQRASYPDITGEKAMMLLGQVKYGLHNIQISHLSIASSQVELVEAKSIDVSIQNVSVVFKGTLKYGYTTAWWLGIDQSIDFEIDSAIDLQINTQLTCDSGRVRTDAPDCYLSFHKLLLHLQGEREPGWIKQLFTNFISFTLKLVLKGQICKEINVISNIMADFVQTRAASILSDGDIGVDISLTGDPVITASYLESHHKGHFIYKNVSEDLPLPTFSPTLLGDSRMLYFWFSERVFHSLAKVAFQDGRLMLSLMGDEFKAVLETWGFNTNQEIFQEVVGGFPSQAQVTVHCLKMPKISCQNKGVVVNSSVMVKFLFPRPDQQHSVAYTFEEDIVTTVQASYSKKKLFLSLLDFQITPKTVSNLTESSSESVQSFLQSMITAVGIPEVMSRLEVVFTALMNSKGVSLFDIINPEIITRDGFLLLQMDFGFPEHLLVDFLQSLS
Briefly: Cholesteryl Ester Transfer Assay: As a protein source for cholesteryl ester transfer, plasma from healthy persons was used, and as a cholesteryl ester receptor, LDL from healthy persons was used. Samples were treated with each test compound to final concentrations of 16, 80, 400, 2000 and 10000 nM and analyzed in duplicate. For the cholesteryl ester transfer test, 20 μl of plasma, 50 μl of LDL (0.25 mg/ml) and 50 μl of rHDL-agarose (0.25 mg/ml) were added, and a solution containing a test compound was added, followed by reaction at 37° C. Then, centrifugation was performed at 4° C. for 3 minutes to stop the reaction, and 150 μl of the supernatant was taken and transferred to a 96-well plate for radioactivity measurement, and the radioactivity of the plate was measured with a beta-ray detector. Type of test: cell-free.

SMILES strings stand for the structures.

The IC50 is the concentration needed to halve the response being measured. Regarding `COc1cc(C(F)(F)F)c(-c2ccc(C(=O)O)cc2F)cc1C1=C(CN2C(=O)O[C@H](c3cc(C(F)(F)F)cc(C(F)(F)F)c3)[C@@H]2C)CC(C)(C)CC1`, the half-inhibitory concentration (IC50) came out at 9.1 nM. With `COc1cc(C(F)(F)F)c(-c2ccc(C(=O)O)cc2Cl)cc1C1=C(CN2C(=O)O[C@H](c3cc(C(F)(F)F)cc(C(F)(F)F)c3)[C@@H]2C)CC(C)(C)CC1` the figure was 12.3 nM.
